Experimental data from patent US20110092505A1, “ORGANIC COMPOUNDS” (priority 2008, published 2011).

How the values were obtained:
protein kinase D1 (PKD1) = target: T1, protein kinase D1 (PKD1) (Homo sapiens, UniProt Q15139); test: PKD1 TR-FRET (LANCE) kinase assay; format: biochemical; conditions: full length wild-type enzyme, 20 μM ATP, syntide-2 substrate; read-out: Inhibitory Activity PKD1
T1 construct: This assay is performed with full length wild-type enzyme that is expressed and purified from Sf9 insect cells; made in house; host or cells: Sf9 insect cells
T1 sequence (Q15139 1-912): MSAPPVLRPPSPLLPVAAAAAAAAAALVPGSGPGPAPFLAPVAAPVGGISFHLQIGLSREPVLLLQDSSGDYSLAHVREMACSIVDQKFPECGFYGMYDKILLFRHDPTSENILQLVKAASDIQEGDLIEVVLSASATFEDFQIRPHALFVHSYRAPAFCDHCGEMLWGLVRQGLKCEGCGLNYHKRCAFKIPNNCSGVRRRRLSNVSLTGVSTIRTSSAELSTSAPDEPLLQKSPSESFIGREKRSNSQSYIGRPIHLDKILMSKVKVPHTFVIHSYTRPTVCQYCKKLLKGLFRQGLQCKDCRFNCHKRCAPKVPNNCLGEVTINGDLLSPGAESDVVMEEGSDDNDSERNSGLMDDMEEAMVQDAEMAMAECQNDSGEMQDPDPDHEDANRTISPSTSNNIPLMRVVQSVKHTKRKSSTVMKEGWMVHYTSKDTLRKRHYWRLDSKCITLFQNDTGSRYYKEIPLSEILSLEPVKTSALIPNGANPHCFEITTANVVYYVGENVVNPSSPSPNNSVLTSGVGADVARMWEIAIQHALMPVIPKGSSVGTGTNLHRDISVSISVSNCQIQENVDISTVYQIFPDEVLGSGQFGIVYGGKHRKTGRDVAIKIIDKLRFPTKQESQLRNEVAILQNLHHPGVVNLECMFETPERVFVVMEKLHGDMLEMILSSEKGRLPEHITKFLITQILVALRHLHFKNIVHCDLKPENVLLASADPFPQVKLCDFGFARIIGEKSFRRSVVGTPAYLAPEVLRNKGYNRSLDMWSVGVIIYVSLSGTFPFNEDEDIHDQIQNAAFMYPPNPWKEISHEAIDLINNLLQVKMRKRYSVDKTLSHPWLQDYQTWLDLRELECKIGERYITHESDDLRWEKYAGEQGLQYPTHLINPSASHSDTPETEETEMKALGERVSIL
Excerpt: (§1) The assay to measure protein kinase D1 (PKD1) activity is a time-resolved fluorescence resonance transfer (TR-FRET) assay using PerkinElmer's LANCE™ technology. In this case, a biotinylated syntide-2 peptide is used as the substrate in this reaction. Phosphorylation of the syntide-2 substrate is detected by a specific antibody that recognizes the phosphorylated peptide. A second fluorophore, APC, is conjugated to streptavidin that binds the biotinylated syntide-2 peptide. […] Therefore, when the europium labeled secondary antibody binds on the phosphorylated peptide, it is brought into close contact with the APC and excites this fluorophore.
(§2) This assay is performed with full length wild-type enzyme that is expressed and purified from Sf9 insect cells. The reaction buffer consists of 35 mM Tris-HCl pH7.5, 5 mM MgCl2, 0.02% Tween-20, 20 μM ATP, 1 mM DTT and 0.2 μg/mL PKD1 enzyme. The enzyme reaction is initiated by the addition of 2 μM syntide-2 peptide substrate and the reaction carried out for 50 minutes at room temperature. The reaction is stopped by a stop/detection Buffer consisting of 50 mM EDTA, 0.18 mg/mL rabbit polyclonal anti-phospho Syntide-2 antibody, 0.5 nM europium labeled anti-rabbit IgG and 10 nM streptavidin conjugated APC. […] IC50 values are calculated using an Activity Base (IDBS) software program.

protein kinase D2 (PKD2) = target: T2, protein kinase D2 (PKD2) (Homo sapiens, UniProt Q9BZL6); test: PKD2 TR-FRET (LANCE) kinase assay; format: biochemical; conditions: full length wild-type enzyme, 20 μM ATP, syntide-2 substrate; read-out: Inhibitory Activity PKD2
T2 construct: This assay is performed with full length wild-type enzyme purchase from Invitrogen; purchased Invitrogen
T2 sequence (Q9BZL6 1-878): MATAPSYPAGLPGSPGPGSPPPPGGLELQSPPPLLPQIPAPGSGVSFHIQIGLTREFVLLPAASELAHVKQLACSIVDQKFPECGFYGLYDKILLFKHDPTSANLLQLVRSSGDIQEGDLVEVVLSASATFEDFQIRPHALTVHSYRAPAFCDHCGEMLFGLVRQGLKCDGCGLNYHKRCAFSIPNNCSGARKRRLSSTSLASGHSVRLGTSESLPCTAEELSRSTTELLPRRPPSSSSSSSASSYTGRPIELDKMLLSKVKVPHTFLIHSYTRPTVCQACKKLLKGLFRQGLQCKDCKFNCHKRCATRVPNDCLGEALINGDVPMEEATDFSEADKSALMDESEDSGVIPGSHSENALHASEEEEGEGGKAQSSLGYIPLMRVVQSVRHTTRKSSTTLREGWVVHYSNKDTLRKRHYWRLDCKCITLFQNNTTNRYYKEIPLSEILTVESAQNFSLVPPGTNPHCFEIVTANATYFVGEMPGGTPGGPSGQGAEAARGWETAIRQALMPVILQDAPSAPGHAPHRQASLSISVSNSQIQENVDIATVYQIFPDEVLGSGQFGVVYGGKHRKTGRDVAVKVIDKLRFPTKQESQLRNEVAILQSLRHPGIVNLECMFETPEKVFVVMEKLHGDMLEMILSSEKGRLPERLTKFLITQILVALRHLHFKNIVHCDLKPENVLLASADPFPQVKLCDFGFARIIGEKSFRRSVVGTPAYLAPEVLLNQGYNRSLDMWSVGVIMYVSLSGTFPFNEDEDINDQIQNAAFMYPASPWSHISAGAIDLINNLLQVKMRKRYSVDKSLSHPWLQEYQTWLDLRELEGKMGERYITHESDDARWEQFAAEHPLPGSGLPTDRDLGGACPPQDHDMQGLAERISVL
Excerpt: as §1, with “D2 (PKD2)” for “D1 (PKD1)”
as §2, with “purchase” for “that is expressed and purified”, “Invitrogen.” for “Sf9 insect cells.”, “PKD2” for “PKD1”, “APC. After a one hour incubation with the stop/detection buffer, the reaction is read on an Envision 2100 Reader using a LANCE™ Eu/APC dual protocol.” for “APC.”

SMILES | IC50 (protein kinase D1 (PKD1)) | IC50 (protein kinase D2 (PKD2))
NC(=O)c1cc(-c2ccnc(NCc3ccccc3Cl)c2)nc(N2CCNCC2)c1 [2′-(2-Chlorobenzylamino-6-piperazin-1-yl-[2,4′]bipyridinyl-4-carboxylic acid amide] | 25 nM | 368 nM
NC(=O)c1cc(-c2ccnc(NC3CCCCC3)c2)nc(N2CCN3CCC[C@@H]3C2)c1 [2′-Cyclohexylamino-6-(R)-hexahydro-pyrrolo[1,2-a]pyrazin-2-yl-[2,4′]bipyridinyl-4-carboxylic acid amide] | 35 nM | 297 nM
N#CCNC(=O)c1ccc(-c2ccnc(NC3CCCCC3)c2)nc1N1CCNCC1 [2′-Cyclohexylamino-6-piperazin-1-yl-[2,4′]bipyridinyl-5-carbonxylic acid cyanomethyl-amide] | 60 nM | 281 nM
COC(=O)c1ccc(-c2ccnc(NC3CCCCC3)c2)nc1N1CCNCC1 [2′-Cyclohexylamino-6-piperazin-1-yl-[2,4′]bipyridinyl-5-carboxylic acid methyl ester] | 83 nM | 500 nM
NC(=O)c1cc(-c2ccnc(NCCc3ccc(O)cc3)c2)nc(N2CCNCC2)c1 [2′-[2-(4-Hydroxyphenyl)ethylamino]-6-piperazin-1-yl-[2,4′]bipyridinyl-4-carboxylic acid amide] | 2 nM | 402 nM
O=C1NCc2c1cc(-c1ccnc(NC3CCCCC3)c1)nc2N1CCn2cnnc2C1 [6-(2-Cyclohexylamino-pyridin-4yl)-4-(5,6-dihydro-8H-[1,2,4]triazolo[4,3-a]pyrazin-7-yl)-2,3-dihydro-pyrrolo[3,4-c]pyridin-1-one] | 56 nM | 466 nM
FC(F)(F)c1cc(-c2ccnc(NC3CCCCC3)c2)nc(N2CCNCC2)c1 [Cyclohexyl-(6-piperazin-1-yl-4-trifluoromethyl-[2,4′]bipyridinyl-2′-yl)amine] | 20 nM | 101 nM
Fc1ccc(Nc2cc(-c3ccnc(NC4CCCCC4)c3)nc(N3CCNCC3)c2)cc1 [N*2′*-Cyclohexyl-N*4*-(4-fluoro-phenyl)-6-piperazin-1-yl-[2,4′]bipyridinyl-4,2′-diamine] | 182 nM | 1160 nM

Continued, values first:

IC50 (protein kinase D1 (PKD1)) | IC50 (protein kinase D2 (PKD2)) | SMILES
12 nM | 214 nM | c1cc(-c2cc(-c3nnco3)cc(N3CCNCC3)n2)cc(NC2CCCCC2)n1 [Cyclohexyl-(4-[1,3,4]oxadiazol-2-yl-6-piperazin-1-yl-[2,4′]bipyridinyl-2′-yl)-amine]
63 nM | 735 nM | CS(=O)(=O)c1cc(-c2ccnc(NC3CCCCC3)c2)nc(N2CCNCC2)c1 [Cyclohexyl-(4-methanesulfonyl-6-piperazin-1-yl-[2,4′]bipyridinyl-2′-yl)-amine]
4 nM | 62 nM | O=[N+]([O-])c1cc(-c2ccnc(NC3CCCCC3)c2)nc(N2CCNCC2)c1 [Cyclohexyl-(4-nitro-6-piperazin-1-yl-[2,4′]bipyridinyl-2′-yl)-amine]
10 nM | 361 nM | Nc1cc(-c2ccnc(NC3CCCCC3)c2)nc(N2CCNCC2)c1 [N*2′*-Cyclohexyl-6-piperazin-1-yl-[2,4′]bipyridinyl-4,2′-diamine]
